# Test results reported in patent US10221163B2 (priority 2015, dated 2019).
# Where two headings read alike, the source gives them in different places.
# Assays:
# VIM-1 = VIM-1 (Pseudomonas aeruginosa (strain ATCC 15692 / DSM 22644 / CIP 104116 / JCM 14847 / LMG 12228 / 1C / PRS 101 / PAO1), UniProt A0A0F7KYQ8); experiment: biochemical; conditions: CCF2-FA substrate, 30 pM enzyme, 2 hours at 25° C.
# How it was run: (§1)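 Inhibitor was mixed with the metallo-β-lactamase and CCF2-FA. After 2 hours at 25° C, fluorescence of the coumarin–fluorescein cephalosporin substrate was read. IC50 was calculated with a 4-parameter fit.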
# [1] = tested on: Pseudomonas aeruginosa MB9798 vs MB9799
# How it was run: (§2)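 P. aeruginosa PAO1-derived IMP-1 strains, efflux+ MB9798 and efflux− MB9799, tested by standard microbroth MIC with imipenem and/or ceftazidime fixed, usually at CLSI breakpoint, plus fixed class A/C β-lactamase inhibitor against AmpC. Inhibitor titrated; concentration restoring susceptibility recorded; MB9798/MB9799 fold difference indicates efflux.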
# IMP-1 = IMP-1 (Serratia marcescens, UniProt P52699); experiment: biochemical; type: biochemical; conditions: fluorescence assay, CCF2-FA substrate, 2 pM enzyme, 2 hours at 25° C.; read-out: IMP-1 IC50
# How it was run: as §1
# NDM-1 = NDM-1 (Klebsiella pneumoniae, UniProt C7C422); experiment: biochemical; type: biochemical; conditions: fluorescence assay, CCF2-FA substrate, 1 pM enzyme, 2 hours at 25° C.; read-out: NDM-1 IC50
# How it was run: as §1
# [2] = tested on: Pseudomonas aeruginosa efflux− (MB9799), IMP-1; type: cell-based; conditions: C, D serine β-lactamase inhibitor closely related to relebactam; for P. aeruginosa expressing IMP-1, efflux − (MB9799) MITC95: concentration restoring susceptibility to imipenem at 2 μg/mL in the presence of a class A
# How it was run: as §2
# [3] = tested on: Klebsiella pneumoniae expressing VIM-1 (IHMA599644); type: cell-based; conditions: for Klebsiella pneumoniae MITC95: VIM-1 strain IHMA599644, with imipenem 1 μg/ml, 95% inhibition of growth; for Klebsiella pneumoniae expressing VIM-1 (IHMA599644) MITC95: with imipenem 1 μg/ml, 95% inhibition of bacterial growth
# How it was run: (§3)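 Colonies grown overnight on blood agar at 35° C were suspended in saline, diluted 1:100 into 1.1×CAMHB and dispensed. Imipenem was added to 1 μg/ml, then test compound. After 22 hours to 24 hours at 35° C, absorbance was recorded.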
# [4] = tested on: Escherichia coli expressing NDM-1 (CLB30005, CLB30016); type: cell-based; conditions: with imipenem 1 μg/ml; for Escherichia coli MITC95: NDM-1 strain, 95% inhibition of growth; for Escherichia coli expressing NDM-1 (CLB30016) MITC95: 95% inhibition of bacterial growth
# How it was run: as §3
# [5] = tested on: Serratia marcescens expressing IMP-1 (CL5741); type: cell-based; conditions: for Serratia marcescens MITC95: IMP-1 strain CL5741, with imipenem 1 μg/ml, 95% inhibition of growth; for Serratia marcescens expressing IMP-1 (CL5741) MITC95: with imipenem 1 μg/ml, 95% inhibition of bacterial growth
# How it was run: as §3
# [6] = tested on: Pseudomonas aeruginosa efflux+ (MB9798), IMP-1; type: cell-based; parameters: Concentration of metallo-β-lactamase inhibitor which restores susceptibility of efflux + (MB9798) strain to imipenem: unit not given here; conditions: C, D serine β-lactamase inhibitor closely related to relebactam; for P. aeruginosa expressing IMP-1, efflux + (MB9798) MITC95: concentration restoring susceptibility to imipenem at 2 μg/mL in the presence of a class A
# How it was run: as §2
# [7] = fluorescence assay, read-out: VIM-1 IC50
# [8] = ratio MITC95 PA_9798/MITC95 PA_9799
# Chain of IMP-1 (P52699 whole entry, looked up, species assumed): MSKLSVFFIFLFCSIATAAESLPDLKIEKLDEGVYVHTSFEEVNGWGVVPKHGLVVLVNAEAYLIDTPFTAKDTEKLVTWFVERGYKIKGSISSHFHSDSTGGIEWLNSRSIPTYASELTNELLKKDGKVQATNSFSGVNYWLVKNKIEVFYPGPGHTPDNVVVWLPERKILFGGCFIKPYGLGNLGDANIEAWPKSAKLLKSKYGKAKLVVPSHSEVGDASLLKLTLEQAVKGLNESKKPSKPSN
# Chain of NDM-1 (C7C422 whole entry, looked up, species assumed): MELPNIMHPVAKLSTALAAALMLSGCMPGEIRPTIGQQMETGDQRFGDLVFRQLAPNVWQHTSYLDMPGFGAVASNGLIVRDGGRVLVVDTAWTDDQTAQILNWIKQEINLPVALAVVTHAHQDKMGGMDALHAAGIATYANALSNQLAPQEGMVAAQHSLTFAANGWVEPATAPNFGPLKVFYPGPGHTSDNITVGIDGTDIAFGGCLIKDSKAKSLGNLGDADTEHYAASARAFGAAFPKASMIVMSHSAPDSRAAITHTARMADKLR
SMILES,IC50 (VIM-1; [7]) [nM],"Efflux ratio [1, 8]",IC50 (IMP-1) [nM],IC50 (NDM-1) [nM],"P. aeruginosa expressing IMP-1, efflux − (MB9799) MITC95 [2] [µM]",Klebsiella pneumoniae MITC95 [3] [µM],Escherichia coli MITC95 [4] [µM],Serratia marcescens MITC95 [5] [µM],"P. aeruginosa expressing IMP-1, efflux + (MB9798) MITC95 [6] [µM]",Klebsiella pneumoniae expressing VIM-1 (IHMA599644) MITC95 [3] [µM],Escherichia coli expressing NDM-1 (CLB30016) MITC95 [4] [µM],Serratia marcescens expressing IMP-1 (CL5741) MITC95 [5] [µM],"Efflux ratio ([1]; fold difference between efflux+ (MB9798) and efflux− (MB9799) strains, imipenem at 2 μg/mL)","Concentration of metallo-β-lactamase inhibitor which restores susceptibility of efflux − (MB9799) strain to imipenem ([2]; efflux− MB9799, imipenem at 2 μg/mL, in the presence of a class A)","Concentration of metallo-β-lactamase inhibitor which restores susceptibility of efflux + (MB9798) strain to imipenem ([6]; efflux+ MB9798, imipenem at 2 μg/mL, in the presence of a class A)","IC50 (VIM-1; VIM-1 IC50, fluorescence assay) [nM]"
"NC[C@@H](O)CNS(=O)(=O)c1ccc(-c2cccc3[nH]c(N)nc23)c(-c2nn[nH]n2)c1S(N)(=O)=O [Example 298, (R)-4-(2-amino-1H-benzo[d]imidazol-4-yl)-N1-(3-amino-2-hydroxypropyl)-3-(2H-tetrazol-5-yl)-benzene-1,2-disulfonamide]",0.135,0.69,0.671,0.0573,0.5156,1.031,0.2786,0.4531,0.3555,,,,,,,
"COCCNS(=O)(=O)c1ccc(-c2cccc3sc(N)nc23)c(-c2nnn[nH]2)c1S(N)(=O)=O [Example 24, 4-(2-amino-1,3-benzothiazol-4-yl)-N^1-(2-methoxyethyl)-3-(1H-tetrazol-5-yl)benzene-1,2-disulfonamide]",0.205,4.00,0.235,0.0732,3.125,,,,12.5,12.5,25,3.125,,,,
"NCCNc1ncccc1-c1ccc(S(=O)(=O)N[C@@H]2CCNC2)c(S(N)(=O)=O)c1-c1nn[nH]n1 [Example 459, (R)-4-(2-((2-Aminoethyl)amino)pyridin-3-yl)-N1-(pyrrolidin-3-yl)-3-(2H-tetrazol-5-yl)benzene-1,2-disulfonamide]",0.172,,12.5,1.17,,1.563,0.3906,1.563,,,,,2.00,1.563,3.125,
"NCC(=O)NC1CCC[C@@H](c2ccc(S(=O)(=O)N[C@@H]3CCNC3)c(S(N)(=O)=O)c2-c2nn[nH]n2)C1 (stereo partly drawn) [Example 270, 2-Amino-N-((3R)-3-(4-(N—((R)-pyrrolidin-3-yl)sulfamoyl)-3-sulfamoyl-2-(2H-tetrazol-5-yl)phenyl)cyclohexyl)acetamide]",0.202,1.00,2.32,0.244,1.563,3.125,1.563,3.125,1.563,,,,,,,
"Nc1ccc(-c2ccc(S(=O)(=O)N[C@@H]3CCNC3)c(S(N)(=O)=O)c2-c2nn[nH]n2)cn1 [Example 194, (R)-4-(6-aminopyridin-3-yl)-N^1-(pyrrolidin-3-yl)-3-(2H-tetrazol-5-yl)benzene-1,2-disulfonamide]",0.123,0.80,0.242,0.105,0.8542,,,,0.6875,2.229,0.3203,0.5573,,,,
"NC[C@@H](N)CNS(=O)(=O)c1ccc(-c2cnc3cc[nH]c3c2)c(-c2nn[nH]n2)c1S(N)(=O)=O [Example 378, (R)-N1-(2,3-diaminopropyl)-4-(1H-pyrrolo[3,2-b]pyridin-6-yl)-3-(2H-tetrazol-5-yl)benzene-1,2-disulfonamide]",,2.00,0.354,0.0511,1.563,3.125,0.7813,1.563,3.125,,,,,,,0.0985
"NCC(CN)NS(=O)(=O)c1ccc(-c2cccc(-c3nc[nH]n3)c2)c(-c2nn[nH]n2)c1S(N)(=O)=O [Example 227, N4-(1,3-diaminopropan-2-yl)-2-(2H-tetrazol-5-yl)-3′-(1H-1,2,4-triazol-3-yl)-[1,1′-biphenyl]-3,4-disulfonamide]",0.137,1.00,0.165,0.048,1.563,,,,1.563,3.125,1.563,1.563,,,,
"Cn1nc2cccc(-c3ccc(S(=O)(=O)N[C@@H]4CCNC4)c(S(N)(=O)=O)c3-c3nn[nH]n3)c2n1 [Example 281, (R)-4-(2-methyl-2H-benzo[d][1,2,3]triazol-4-yl)-N1-(pyrrolidin-3-yl)-3-(2H-tetrazol-5-yl)benzene-1,2-disulfonamide]",0.0515,2.00,0.75,0.0166,1.563,3.125,1.563,1.563,3.125,,,,,,,
"NC[C@H](CO)NS(=O)(=O)c1ccc(-c2cccc3sc(N)nc23)c(-c2nnn[nH]2)c1S(N)(=O)=O [Example 202, (R)—N^1-(1-amino-3-hydroxypropan-2-yl)-4-(2-aminobenzo[d]thiazol-4-yl)-3-(1H-tetrazol-5-yl)benzene-1,2-disulfonamide]",,1.00,0.713,0.124,1.563,,,,1.563,3.125,3.125,1.563,,,,0.328
"NS(=O)(=O)c1c(S(=O)(=O)N[C@@H]2CCNC2)ccc(-c2cccnc2N2CCNCC2)c1-c1nn[nH]n1 [Example 220, (R)-4-(2-(piperazin-1-yl)pyridin-3-yl)-N1-(pyrrolidin-3-yl)-3-(2H-tetrazol-5-yl)benzene-1,2-disulfonamide]",0.442,4.00,35.8,1.57,1.563,,,,6.25,1.563,1.563,3.125,,,,
